Results from PMC13379085 (PLOS Neglected Tropical Diseases, 2026).

Molecular target: T1, lysozyme (Homo sapiens, UniProt P61626)
T1 sequence (P61626 19-148): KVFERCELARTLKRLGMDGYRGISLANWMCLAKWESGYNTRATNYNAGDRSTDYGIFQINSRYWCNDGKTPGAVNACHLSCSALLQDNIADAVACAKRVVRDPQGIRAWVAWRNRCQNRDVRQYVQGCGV
Experiment: Thermal proteome profiling (TPP) in Leishmania infected macrophage lysate
Type: binding
Set-up: endogenous in cells; host or cells: PMA-differentiated THP-1 macrophages infected with L. mexicana (lysate)
Details: 100 µM 197 in L. mexicana infected THP-1 lysate
Method: To generate cell lysate, ten million THP-1 cells were plated overnight in a 10 cm dish, then differentiated with 150 nM phorbol 12-myristate 13-acetate (PMA) for 72 hours. The resulting macrophages were infected with L. mexicana promastigotes at a multiplicity of infection of 10 and incubated for 18 hours. After infection, cells were washed three times with PBS to remove extracellular promastigotes. Cells were then collected by scraping and pelleted with centrifugation. The cell pellet was resuspended in phosphate buffered saline and subjected to five freeze-thaw cycles. Samples were centrifuged 14,000g x 10 minutes to remove cellular debris. Protein concentration of supernatant was determined by BCA assay and cell lysate was stored at -80 ° C until further use.
The cell lysate was divided into two portions. One portion was spiked with 197 in DMSO to generate the ‘with ligand’ sample; and the other portion was spiked with DMSO to generate the ‘without ligand’ sample. The final concentration of 197 in the ‘with ligand’ sample was 100 µM, and both the without and with ligand samples contained 1% DMSO. The with and without samples were each subjected five replicate one-pot TPP analyses like that previously described. […]

Q: Which “TPP z-score for lysozyme” value does the source give for O=C(CNCc1cccc(F)c1)Nc1ccc(-n2cc(C(F)(F)F)nc2-c2ccc(-c3ccc(C(F)(F)F)cc3)cc2)cc1 [Compound 197] here?
A: 4.32
